One experiment concerns the target T1, PDE9 (PDE9A) (Homo sapiens, UniProt O76083).
T1 construct: FLAG (pFLAG-CMV-2) (N); made in house; host or cells: COS-7 cells, 100,000 x g supernatant of the sonicate, not purified
Description: PDE assay, recombinant human PDE9A. The following applies: substrate about 12 nM [3H]-cGMP and 0.1 μM cGMP. The class given is biochemical. On the procedure:
Based on the information of cDNA sequence of human PDE9A (Genbank/EMBL Accession No. AF048837) (Fisher et al., J. Biol. Chem., 1998, vol. 273, pp. 15559-15564, […]), a cDNA encoding human PDE9A was cloned by PCR method. Using this cDNA, a recombinant protein of human PDE9A was prepared as follows.
A DNA fragment comprising a cDNA encoding human PDE9A was linked to pFLAG-CMV-2 (available from Kodak), to give a vector plasmid for expression of human PDE9A, with a flag tag peptide added to the N-terminus. COS-7 cells were transfected by these vector plasmids, and the cells were cultured in Dulbecco's modified Eagle medium containing 10% bovine fetal serum for about 24 to 48 hours. After incubation, the cells were collected, and washed with Phosphate buffered saline, and re-suspended in a solution buffer (20 mM Tris-HCl, pH7.5, 2 mM magnesium acetate, 0.3 mM calcium chloride, 1 mM dithiothreitol, 1.3 mM benzamidine). The cells were homogenized by ultrasonic treatment, and subjected to centrifugation (100,000×g, 4° C., 1 hour) to collect a supernatant.
This supernatant containing the recombinant human PDE9A was used for PDE assay as a PDE9 (PDE9A) enzyme solution. […]

The target in the next experiment is T2, PDE11 (PDE11A) (Homo sapiens, UniProt Q9HCR9).
T2 construct: His tag (hexahistidine, pcDNA4/HisMax) (N); made in house
Put plainly: PDE assay, recombinant human PDE11A. The note with it: substrate about 12 nM [3H]-cGMP and 1 μM cGMP. The class given is biochemical. The text has this: Based on the information of cDNA sequence of human PDE7A (Genbank/EMBL Accession No. NM002603), a cDNA encoding human PDE7A was cloned by PCR method, according to a method described in Sasaki et al. (Sasaki et al., Biochem. Biophys. Res. Commun., vol. 271, pp. 575-583, 2000). Further, based on the information of cDNA sequence of human PDE8A (Genbank/EMBL Accession No. AF388183), a cDNA encoding human PDE8A was cloned by PCR method, according to a method described in Gamanuma et al. (Gamanuma et al., Cell Signal, 2003, vol. 15, pp. 565-574). Further, a cDNA encoding human PDE11A was obtained, according to a method reported in Yuasa et al. (Yuasa et al., J. Biol. Chem., vol. 275, pp. 31469-31479, 2000). Using these cDNAs, recombinant proteins of human PDE7A, human PDE8A, and human PDE11A were prepared as follows.
DNA fragments comprising a cDNA encoding human PDE7A, human PDE8A or human PDE11A were linked to pcDNA4/HisMax (available from Invitrogen), to give a vector plasmid for expression of human proteins, with a histidine tag peptide (hexahistidine), added to the N-terminus. COS-7 cells were transfected with these vector plasmids, and the cells were cultured in Dulbecco's modified Eagle medium containing 10% bovine fetal serum for about 24 hours. […]

The next experiment addresses PDE4. Put plainly: PDE assay, PDE4 enzyme solution from dog lung. The class given is biochemical, mixed-breed dog. The following applies: substrate about 4.8 nM [3H]-cAMP and 1 μM cAMP. How it is done:
These fractions were collected and glycerol was added thereto to become 50%, and the mixture was stored at −20° C.

Bounds are passed on as bounds.

The record followed here is patent US8338420B1, “Treatment of Parkinson's disease and enhancement of dopamine signal using PDE 10 inhibitor” (Mitsubishi Tanabe Pharma Corporation, priority 2002, dated 2012).

T2 sequence (Q9HCR9 whole entry): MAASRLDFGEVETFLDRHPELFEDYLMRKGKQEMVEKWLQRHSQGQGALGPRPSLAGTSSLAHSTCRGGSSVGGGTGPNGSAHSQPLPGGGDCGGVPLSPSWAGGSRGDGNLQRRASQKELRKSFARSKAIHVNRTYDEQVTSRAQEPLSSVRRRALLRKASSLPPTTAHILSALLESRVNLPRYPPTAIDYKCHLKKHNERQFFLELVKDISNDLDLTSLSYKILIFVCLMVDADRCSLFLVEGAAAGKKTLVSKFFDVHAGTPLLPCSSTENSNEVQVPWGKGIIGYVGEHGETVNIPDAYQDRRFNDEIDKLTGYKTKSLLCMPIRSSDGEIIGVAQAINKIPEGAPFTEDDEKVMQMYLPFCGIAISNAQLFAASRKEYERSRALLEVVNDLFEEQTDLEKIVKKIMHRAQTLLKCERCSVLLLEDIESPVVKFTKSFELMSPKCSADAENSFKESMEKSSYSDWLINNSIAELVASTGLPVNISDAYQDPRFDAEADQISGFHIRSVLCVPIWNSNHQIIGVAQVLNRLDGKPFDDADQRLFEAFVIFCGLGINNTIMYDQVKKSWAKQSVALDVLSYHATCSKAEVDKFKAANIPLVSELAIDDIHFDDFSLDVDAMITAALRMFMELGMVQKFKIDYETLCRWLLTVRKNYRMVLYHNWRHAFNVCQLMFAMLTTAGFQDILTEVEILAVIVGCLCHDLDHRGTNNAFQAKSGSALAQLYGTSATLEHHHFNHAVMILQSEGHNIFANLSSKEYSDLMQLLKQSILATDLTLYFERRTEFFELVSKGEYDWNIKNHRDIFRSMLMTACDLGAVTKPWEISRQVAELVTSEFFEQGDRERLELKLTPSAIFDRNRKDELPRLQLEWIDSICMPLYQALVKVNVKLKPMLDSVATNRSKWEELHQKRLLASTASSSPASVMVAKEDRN
T1 sequence (O76083 whole entry): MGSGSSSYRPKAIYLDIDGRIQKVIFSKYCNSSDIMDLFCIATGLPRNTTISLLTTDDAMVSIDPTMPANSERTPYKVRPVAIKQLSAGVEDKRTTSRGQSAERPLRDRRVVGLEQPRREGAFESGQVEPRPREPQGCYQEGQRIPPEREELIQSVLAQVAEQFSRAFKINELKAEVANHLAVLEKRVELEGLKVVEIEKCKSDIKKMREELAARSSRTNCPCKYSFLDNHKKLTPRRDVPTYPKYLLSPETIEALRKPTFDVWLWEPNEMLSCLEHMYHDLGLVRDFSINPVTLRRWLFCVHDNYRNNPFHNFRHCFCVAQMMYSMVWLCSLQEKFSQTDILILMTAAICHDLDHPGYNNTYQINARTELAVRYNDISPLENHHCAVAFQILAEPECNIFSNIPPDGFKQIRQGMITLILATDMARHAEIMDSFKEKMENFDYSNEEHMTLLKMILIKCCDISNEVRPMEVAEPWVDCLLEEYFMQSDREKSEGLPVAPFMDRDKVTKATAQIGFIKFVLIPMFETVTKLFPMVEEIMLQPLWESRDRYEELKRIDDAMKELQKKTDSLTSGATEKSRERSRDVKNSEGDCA

The term IC50 denotes the concentration that inhibits the measured activity by half. Take `COc1ccc(-c2cc(N3CCCC3)nc(/C=C/c3nc(-n4ccnc4)c4ccccc4n3)n2)cc1OC` [Compound A, 2-{(E)-2-[4-(1-imidazolyl)-quinazolin-2-yl]}ethenyl-4-(3,4-dimethoxy)phenyl-6-(pyrrolidin-1-yl)pyrimidine]: the IC50 at PDE9 (PDE9A) is greater than 1000 nM; on PDE11 (PDE11A), greater than 1000 nM; against PDE4, 160 nM.
